# Measured values reported in patent US20070254871A1, “Compounds for the Treatment of Inflammation of the Central Nervous System” (Neurotec Pharma, S.L., priority 2004, published 2007).
# Test system: microglial reaction in rat hippocampal lesion
# Assay: Microglial reaction in rat hippocampal lesion (stereotaxic AMPA injection, IB4 histochemistry)
# Assay type: in vivo
# Conditions: for Density of reactive microcytes / Hippocampal microgliosis area: n=4, mean±S.E.M.
# Protocol: This model relies on the acute stereotaxic over-activation of rat glutamate hippocampal receptors that results in a neurodegenerative process characterized by a neuronal loss with astroglial and microglial reactions (cf. F. Bernal et al., Hippocampus 2000, vol. 10, pp. 296-304; F. Bernal et al., Exp. Neurol. 2000, vol. 161, pp. 686-95). In this neurodegenerative model rats were anaesthetized with equithesin (a mixture of chloral hydrate and pentobarbital sodium; 0.3 ml/100 g body weight, i.p.) and placed on a Kopf stereotaxic frame with the incisor bar set at −3.3 mm. Intracerebral injections aimed at the dorsal hippocampus were performed at 3.3 mm caudal to bregma, 2.2 mm lateral and 2.9 mm ventral from dura (cf. G. Paxinos et al., “The rat brain in stereotaxic coordinates”, Sydney: Academic Press 1986). A volume of 0.5 μl was injected over a period of 5 min.
# Four different groups of rats received two injections in a 2-hour interval as follows: a) sham rats (n=4) received two injections of PBS; b) AMPA rats (α-amino-3-hydroxy-5-methylisoxazole-4-propionic acid) (n=4) received the first injection of 5.4 mM AMPA and the second of PBS; c) diazoxide rats (n=4) received two injections of 50 μM diazoxide; d) AMPA+diazo rats (n=4) received 5.4 mM AMPA+50 μM diazoxide in the first injection and 50 μM diazoxide in the second injection. All rats were sacrificed 24 hours after the lesion.
# Rats were transcardially perfused with 300 ml of 0.1 M phosphate buffer (PB, pH 7.4) followed by 300 ml ice-cold fixative (flow rate 20 ml/min). The fixative consisted of 4% (w/v) paraformaldehyde in PB. Brains were removed, crioprotected with 15% (w/v) sucrose in PB and then, frozen with dry ice. Cryostat sections (12 μm) were obtained at the level of dorsal hippocampus (−3.3 mm to bregma). Isolectine B4 (IB4) histochemistry was performed to identify the microglial reaction (cf. C. A. Colton et al., J. Histochem. Cytochem. 1992, vol. 40, pp. 505-12).
# Microgliosis area evaluation was performed on IB4 positive stained sections, which were analyzed using a computer-assisted image analysis system (OPTIMAS®, BioScan Inc., Washington, USA). IB4-stained reactive microcytes were counted at ×100 magnification using an ocular grid mounted on a transmission light microscope (Axiolab, Zeiss, Göttingen, Germany). One-way ANOVA was used to compare differences between groups, followed by the LSD post-hoc test. Results were expressed as mean±S.E.M. All analyses were performed with the computer program STATGRAPHICS (STSC Inc., Rockville, Md., USA).
# [1] = AMPA+diazo group: 5.4 mM AMPA+50 μM diazoxide in first injection, 50 μM diazoxide in second, 24 hours
# [2] = substance alone injected into dorsal hippocampus (diazoxide: two injections of 50 μM; AMPA: 5.4 mM then PBS), 24 hours
# [3] = substance alone injected into dorsal hippocampus (diazoxide: two injections of 50 μM; AMPA: 5.4 mM then PBS), sacrificed 24 hours after the lesion
Structure (SMILES),"Microgliosis area as % of the AMPA group (AMPA+diazo group versus AMPA group, 24 hours)",Density of reactive microcytes [1],Hippocampal microgliosis area [1],Effect on microglial activation (in words) (diazoxide-treated animals compared with AMPA-treated animals),Density of reactive microcytes [2],Hippocampal microgliosis area [3]
CC1=NS(=O)(=O)c2cc(Cl)ccc2N1 [diazoxide],37%,603±56 cells/mm^2,0.16±0.02 mm^2,reduces microglial activation to sham values,555±91 cells/mm^2,0.19±0.03 mm^2
"Cc1onc(O)c1CC(N)C(=O)O (stereo not drawn) [AMPA, α-amino-3-hydroxy-5-methylisoxazole-4-propionic acid]",–,–,–,–,645±59 cells/mm^2,0.44±0.07 mm^2
